One compound from patent US20080014248A1, “Photosensitizer containing indole-3-alkylcarboxylic acid, and kit for photodynamic therapy containing the same” (priority 2006, published 2008) can be followed below.

Data set [1] deals with G361 human melanoma cell line, mouse melanoma cell line B16, liver cancer cell (SK-HEP-1). Kind of data set: Toxicity experiment (MTT assay), IAA with UVB irradiation, cancer cells. Format: cell-based. The following applies: 1 to 1000 mM, 20 hours, FIG. 3. Here is the method: (§1) (Cell Culture) After cultivating G361 human melanoma cell line (ATCC, Rockville, Md.) in a 5% CO2, 37 °C, 10% fetal bovine serum (FBS), 50 μg/mL streptomyocin, and 50 μg/mL penicillin containing DMEM culture, mouse melanoma cell line B16 (Korea Cell Bank, Seoul, Korea) liver cancer cell (SK-HEP-1, Korea Cell Bank, Seoul, Korea) was cultivated in the DMEM culture under the same conditions. Fibroblasts have been used for the separation of the foreskin during phimosiectomy. Following the skin biopsy method of Rheinward and Green (Rheinwald J G, Green H. Serial cultivation of strains of human epidermal keratinocytes; the formation of keratinizing colonies from single cells. Cell 1975;6: 331-43.), the […] were cultivated in a 10% fetal bovine serum (FBS), 50 μg/mL of streptomyocin, and 50 μg/mL of penicillin containing DMEM culture.
(§2) The cells cultivated in the medium were divided into 24 wells (4×10^4/well), and was then cultivated in a medium without FBS for 24 hours. Cytotoxic effect was measured using MTT (3,4-dimethylthiazol-2-yl)2,5-diphenyltetrazolium bromide) assay. An ICA group treated with UVB (100 mJ/cm^2) and a group with ICA alone were separated, each with a final IAA concentration between 1 and 1000 mM in the culture. […] After adding and dissolving 1 ml of dimethylsufoxide solution in the well, the absorption was measured using ELISA reader at 540 nm. […]
For orientation: Tetrazolium assays rely on reduction of a dye to a coloured formazan, in cell work by metabolically active cells.

A further data set concerns NCI-H1264 cell. Kind of data set: Prevention of cancer by combining IAA and IPL (treatment before appearance of tumor mass, biopsy). The format is in vivo, nude mouse. The following applies: IAA and IPL treatment one, three and five days after NCI-H1264 cell injection, biopsy ten days after injection, FIG. 7. The protocol:
It was observed that the combination of IAA and IPL could induce cancer cell necrosis. However, prevention of histologic or distant metastasis is more important in the treatment of cancer. In order to study the prevention effect, IAA and IPL treatment was performed after cancer cell injection but before the appearance of tumor mass. One, three, and five days after NCI-[…] cell injection, IAA and IPL treatment was performed. Ten days after cancer cell injection, biopsy was done. […] Thus, it can be said that IAA and IPL treatment was effective in the prevention of distant metastasis.

Data set [2] relates to Stomach cancer cell line (SNU1, SNU16, SNU601, SNU719), lung cancer cell line (NCI-H157, NCI-H1264), liver cancer cell line (SK-HEP-1). In words: Toxicity experiment of various cell types (MTT assay), IAA/HRP, cancer cells. The following applies: 20 hours, FIG. 2a-2c. Format: cell-based. The protocol: (§3) Stomach cancer cell line (SNU1, SNU16, SNU601, SNU719, Korean Cell Bank, Seoul, Korea), and lung cancer cell line (NCI-H157, NCI-H1264, Korea Cell Bank, Seoul, Korea) were cultivated in a 5% CO2, 37 °C, 10% FBS, and 50 μg/mL penicillin containing RPMI 1640 culture (WelGene, Daegu, Korea), and liver cancer cell line (SK-HEP-1, Korean Cell Bank, Seoul, Korea) was cultivated in DMEM culture (WelGene, Daegu, Korea) under the same conditions. Fibroblasts have been used for the separation of the foreskin during phimosiectomy. […]
(§4) The cells cultivated in the medium were divided into 24 wells (4×10^4/well), and were then cultivated in a medium without FBS for 24 hours. Cytotoxic effect was measured using MTT (3,4-dimethylthiazol-2-yl)2,5-diphenyltetrazolium bromide) assay (Kim, D. S., Jeon, S. E., Park, K. C. […]
(§5) An HRP (1.2 mg/ml) treated group and a group untreated with HRP was separated, each with a final IAA concentration between 1 and 1000 mM in the culture. […] After adding and dissolving 1 ml of dimethylsufoxide solution in the well, the absorption was measured using ELISA reader at 540 nm. […]

In data set [3] the test system is normal human fibroblasts. In words: Toxicity experiment of various cell types (MTT assay), IAA/HRP, fibroblasts. The format is cell-based. The following applies: 20 hours, FIG. 2a-2c. The protocol: as §3, §4, §5
Data set [4] in a line: Photo-activation of IAA by different wavelength of light, free radical formation by DCF (dichlorofluorescein) assay. Format: physicochemical. The following applies: 1 mM IAA, HL-2000-HP irradiator, FIG. 4. Here is the method: In order to study the effects of different wavelength of light, IAA was irradiated with HL-2000-HP (Ocean Optics, Dunedin, Fla., USA). Free radical formation was measured by DCF (dichlorofluorescein) assay. In order to induce activity of DCFH-DA, DCFH-DA was dissolved to a 1 mM concentration in 100% ethanol. 350 ul of the solution was then added to 1.75 ml of 0.01 N NaOH and allowed reaction for 5, 10, and 20 minutes. The activated DCFH-DA solution was then prepared by mixing 17.9 ml of 25 mM natrium-phosophoric acid buffer solution (pH 7.2). 1 mM of IAA was then administered to the activated DCFH-DA, and using HL-2000HP light irradiator, various wavelength filters (380, 400, 480, 520, 590, 640 nm) (Thorlabs, Inc., Long Beach, Calif., USA) were used to observe any photoactivation of IAA using each wavelength. Absorption was measured using ELISA reader at 490 nm.

Data set [5] concerns G361 human melanoma cell line. Kind of data set: G361 cell toxicity experiment (MTT assay), IAA with or without HRP. The format is cell-based. The following applies: 20 hours, G361 cells, FIG. 1. Here is the method:
G361 human melanoma cell line (ATCC, Rockville, Md.) was cultivated in a 5% CO2, 37 °C, 10% fetal bovine serum (FBS), and 50 μg/mL penicillin containing RPMI 1640 culture (WelGene, Daegu, Korea).
The cells cultivated in the medium were divided into 24 wells (4×10^4/well), and was then cultivated in a medium without FBS for 24 hours. Cytotoxic effect was measured using MTT (3,4-dimethylthiazol-2-yl)2,5-diphenyltetrazolium bromide) assay (Kim, D. S., Jeon, S. E., Park, K. C. Cell Signal, 16, 81-8, 2004).
An HRP (1.2 mg/ml, Sigma, St. Louis, Mo.) treated group (indicated by the ‘∘’ in FIG. 1) and a group untreated with HRP (indicated by the ‘▪’ in FIG. 1) were separated, each with a final IAA density between 1 and 500 mM in the culture. After cultivating for 20 hours, 0.5 mg/Ml of MTT was added to the culture and cultivated for 4 more hours. After adding and dissolving 1 ml of dimethylsufoxide solution in the well, the absorption was measured using ELISA reader (TECAN, Salzburg, Austria) at 540 nm. The viability rate for the control group was set at 100%.
(Calculations) Cell viability(%)=(experimental group/control group absorption)×100

Data set [6] deals with normal human fibroblasts. In words: Toxicity experiment (MTT assay), IAA with UVB irradiation, fibroblasts. The format is cell-based. The settings on record: 1 to 1000 mM, 20 hours, FIG. 3. The protocol: as §1, §2
The subject of data set [7] is Human lung cancer cells (NCI-H1264 cell) tumor. Kind of data set: Treatment of cancer by combination of IAA and IPL in nude mouse (Hematoxylin & Eosin stain, TUNEL assay). Format: in vivo. The settings on record: IAA 50 mg/kg intravenous, 4 and 7 days after cancer cell injection, IPL 20 J/cm2 thirty minutes later, biopsy at twelve days, FIG. 6. The source says:
Intense pulse light (IPL) flash lamp by Eclipse was used for visible light irradiation. 20 Irradiation of 20 J/cm^2 intensity was used with a IPL apparatus able to irradiate between 515 nm to 1200 nm. After applying transmission gel (PROGEL DA-YO Medical, Seoul, Korea) to areas of tumor formation each region was irradiated twice using IPL. Human lung cancer cells (NCI-[…] cell, 1×10^6) were subcutaneously injected into nude mouse (Charles River Lab. Wilmington, Mass./male, 6 weeks old, weight 22-25 g). […] 4 and 7 days after cancer cell injection, these mice were injected with IAA (50 mg/kg). Thirty minutes after intravenous injection of IAA, mice were irradiated with IPL (20 J/cm2). Twelve days after cancer cell injection, biopsy was done and tunnel stain was also performed. […] Experimental IAA (10 mg/ml in 50 mM NaHCO/2% v/v ethanol/water, pH 7) was prepared. A control group of mice with tumor mass formation and an experimental group of mice injected with IAA (pH 7, 50 mg/kg) were separated. The injected group was again separated into two groups, one group treated with IAA after 4 days of cancer cell injection and the other after 7 days. Thirty minutes after intravenous injection of IAA, mice were irradiated with IPL (20 J/cm2). A TUNEL (Chemicon, Temecula, Calif.) assay kit was used for the present experiment. […]

`O=C(O)Cc1c[nH]c2ccccc12` [IAA, Indole-3-acetic acid]: the “toxicity (cell viability, MTT)” value in data set [1] (IAA alone) is reported as “not toxic to either normal cells or cancer cells”; in data set [1] (IAA treated with UVB (100 mJ/cm^2)) it was “toxic to most of the cancer cells”; in data set [2] (IAA administered with HRP (1.2 mg/ml)), “toxic to most of the cancer cells”; in data set [2] (IAA alone, 1 to 1000 mM), “not toxic to either normal cells or cancer cells”; in the data set on normal human fibroblasts [3] (IAA administered with HRP (1.2 mg/ml), normal human fibroblasts) it was “not toxic to normal human fibroblasts”; in the data set on normal human fibroblasts [3] (IAA alone, 1 to 1000 mM, normal cells (fibroblasts)) it was “not toxic to either normal cells or cancer cells”. Also, the “toxicity (cell viability, MTT)” value is listed as “not toxic to either normal cells or cancer cells” in the data set on normal human fibroblasts [6] (IAA alone, normal cells (fibroblasts)) and “not toxic to normal human fibroblasts” with normal human fibroblasts [6] (IAA treated with UVB (100 mJ/cm^2), normal human fibroblasts). Also, the “tumor cell growth (biopsy)” value in the data set with NCI-H1264 cell is listed as “not observed in treated tissues”. In addition, the “activation of IAA by light (free radical formation, DCF assay)” value in data set [4] (480 nm (blue) filter) and in data set [4] (520 (green) filter) was “particularly effective” in each case. Besides, the “cytotoxic effects (cell viability, MTT)” value is “no signs of cytotoxic effects” in data set [5] (IAA alone (no HRP), IAA 1 to 500 mM); “definite cytotoxic effects” in data set [5] (IAA and HRP (1.2 mg/ml), IAA density of at least 100 mM). In addition, in data set [7], the “tumor necrosis (Hematoxylin & Eosin stain and TUNEL assay)” value was “can induce tumor necrosis”.
